Reference: US20080145876A1, “POLY(ETHYLENE GLYCOL) ANTI-BODY DETECTION ASSAYS AND KITS FOR PERFORMING THEREOF” (University of Southern California, priority 2006, published 2008)

Assays:
[1] = test system: anti-PEG; assay: Inhibition of PEG-RBC agglutination by polymers/small ethers added to anti-PEG positive sera (anti-PEG epitope study, tube test); type: binding, human; settings: for Effect on PEG-RBC agglutination (inhibition): three 4+ anti-PEG positive sera, 1% (w/v) final concentration; for Agglutination Score of PEG-RBCs: compound added at 1% w/v, PBS control 4+
Protocol: One drop of RBCs (PEG-coated or control (uncoated) RBCs) at 5% hct were added to 2 drops of plasma. Samples were incubated at room temperature for 15 minutes and then centrifuged at 1000×g for 1 minute. Agglutination of PEG-coated or uncoated (control) RBCs by each plasma sample was scored according to the 0-4+ scale.
The polymer and small ether solutions were added to anti-PEG positive sera at a 1:1 (v/v) ratio giving a final polymer/small ether concentration of 1% (w/v) and incubated for 30 minutes at room temperature. […] Inhibition of agglutination by the smallest ether molecule tested determined the anti-PEG epitope.

[2] = ASNase activity in sera of PEG-ASNase-treated ALL patients (microplate technique) versus anti-PEG status; type: in vivo, human
Protocol: Stored serum samples were collected from 28 pediatric acute lymphoblastic leukemia (ALL) patients who received the chemotherapy agent, PEG-conjugated asparaginase (PEG-ASNase). Sera were assayed for ASNase activity using a microplate technique. Testing for anti-PEG was performed by serology as described in Example 1 and by flow cytometry as described in Example 3.

In the case of `OCCOCCO` [Diethylene Glycol], the “Effect on PEG-RBC agglutination (inhibition)” value (shortened to “Effect … (inhibition)”) [1] is reported as “no effect”.

With `COCCOCCOCCOCCOC` [Tetraethylene Glycol Dimethyl Ether] the “Agglutination Score of PEG-RBCs” value ([1]; Anti-PEG Positive Donor A) was 0^, the “Agglutination Score of PEG-RBCs” value ([1]; Anti-PEG Positive Donor B) was 0^ and the “Agglutination Score of PEG-RBCs” value ([1]; Anti-PEG Positive Donor C) was 0^. The “Effect … (inhibition)” value [1] was “Complete inhibition of agglutination”.

For `COCCOCCOCCOC` [Triethylene Glycol Dimethyl Ether], the “Agglutination Score of PEG-RBCs” value ([1]; Anti-PEG Positive Donor A) was 0^, the “Agglutination Score of PEG-RBCs” value ([1]; Anti-PEG Positive Donor B) was 0^ and the “Agglutination Score of PEG-RBCs” value ([1]; Anti-PEG Positive Donor C) was 0^. The “Effect … (inhibition)” value [1] was “Complete inhibition of agglutination”.

For `OCCOCCOCCO` [Triethylene Glycol], the “Effect … (inhibition)” value [1] was “no effect”.

In the case of `CCOCCOCCOCC` [Diethylene Glycol Diethyl Ether], the “Effect … (inhibition)” value [1] is reported as “reduced PEG-RBC agglutination (4+ to 2+)”.

With `OCCO` [Ethlyene Glycol] the “Effect … (inhibition)” value [1] was “no effect”.

B1: PEG-asparaginase: chemotherapy agent, PEG-conjugated asparaginase (PEG-ASNase) (conjugate, UniProt P00805 23-348, looked up)
L-asparaginase 2: LPNITILATGGTIAGGGDSATKSNYTVGKVGVENLVNAVPQLKDIANVKGEQVVNIGSQDMNDNVWLTLAKKINTDCDKTDGFVITHGTDTMEETAYFLDLTVKCDKPVVMVGAMRPSTSMSADGPFNLYNAVVTAADKASANRGVLVVMNDTVLDGRDVTKTNTTDVATFKSVNYGPLGYIHNGKIDYQRTPARKHTSDTPFDVSKLNELPKVGIVYNYANASDLPAKALVDAGYDGIVSAGVGNGNLYKSVFDTLATAAKTGTAVVRSSRVPTGATTQDAEVDDAKYGFVASGTLNPQKARVLLQLALTQTKDPQQIQQIFNQY
modifications: PEG conjugate
In the case of B1, the “mean ASNase activity” value ([2]; IgM anti-PEG positive patients by flow cytometry (n=13)) is reported as 12 U/L, the ASNase activity ([2]; all anti-PEG positive patient sera, serology or flow cytometry) is reported as “low or undetectable” and the “mean ASNase activity” value ([2]; anti-PEG negative patients by flow cytometry (n=15)) is reported as 438 U/L. For the same molecule, the “mean ASNase activity” value ([2]; anti-PEG negative patients by serology (n=19)) was 353 U/L, the ASNase activity ([2]; anti-PEG positive patients by serology (n=9)) was “undetectable” and the ASNase activity ([2]; one anomalous sample, weakly positive for anti-PEG IgM and positive for anti-ASNase) was 123 U/L.
